Assay results from patent US9149038B2, “4-amino-6-(heterocyclic)picolinates and 6-amino-2-(heterocyclic)pyrimidine-4-carboxylates and their use as herbicides” (Dow AgroSciences LLC, priority 2013, dated 2015).
Like-named read-outs stand apart in the source and are kept apart here.

System: Wheat and Barley and weed species
Assay: Post-Emergent Test III: postemergent herbicidal activity in wheat and barley, visual rating after 21 d and probit GR20/GR50/GR80/GR90 (Tables 9-13)
Type: in vivo
Settings: for pest or weed control at 17.5 g/ha / pest or weed control at 35 g/ha / pest or weed control at 70 g/ha: post-emergence, 504 h
How it was run: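 Greenhouse plants (~18/17 °C, 14 h photoperiod) at second–third true leaf stage sprayed at 187 L/ha with a high rate and ½× to 1/16× serial dilutions. Visual injury 0–100% versus solvent-blank controls scored at 21 d; GR20, GR50, GR80 and GR90 derived by probit analysis across rates.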

Compound: COC(=O)c1nc(-c2ccc(Br)c3c2OC(F)(F)O3)c(F)c(N)c1Cl [Compound 78, Methyl 4-amino-6-(7-bromo-2,2-difluorobenzo[d][1,3]dioxol-4-yl)-3-chloro-5-fluoropicolinate]
- Visual Growth Reduction (%) 21 Days After Application CIRAR (CIRAR Canada thistle (Cirsium arvense), 17.5 g ai/ha): B (85-94)
- Visual Growth Reduction (%) 21 Days After Application CIRAR (CIRAR Canada thistle (Cirsium arvense), 35 g ai/ha): B (85-94)
- Visual Growth Reduction (%) 21 Days After Application CIRAR (CIRAR Canada thistle (Cirsium arvense), 70 g ai/ha): B (85-94)
- GR50 CIRAR (CIRAR Canada thistle (Cirsium arvense), growth reduction of 50%, probit analysis): 2 g ai/ha
- GR80 CIRAR (CIRAR Canada thistle (Cirsium arvense), growth reduction of 80%, probit analysis): 7 g ai/ha
- GR90 CIRAR (CIRAR Canada thistle (Cirsium arvense), growth reduction of 90%, probit analysis): 12 g ai/ha
- Visual Growth Reduction (%) 21 Days After Application GALAP (GALAP cleavers (Galium aparine), 17.5 g ai/ha): D (60-74)
- Visual Growth Reduction (%) 21 Days After Application GALAP (GALAP cleavers (Galium aparine), 35 g ai/ha): D (60-74)
- Visual Growth Reduction (%) 21 Days After Application GALAP (GALAP cleavers (Galium aparine), 70 g ai/ha): D (60-74)
- GR50 GALAP (GALAP cleavers (Galium aparine), growth reduction of 50%, probit analysis): 1 g ai/ha
- GR80 GALAP (GALAP cleavers (Galium aparine), growth reduction of 80%, probit analysis): >140 g ai/ha
- GR90 GALAP (GALAP cleavers (Galium aparine), growth reduction of 90%, probit analysis): >140 g ai/ha
- GR20 HORVS (HORVS barley, spring (crop), growth reduction of 20%, probit analysis): 13 g ai/ha
- pest or weed control at 17.5 g/ha (Hordeum vulgare, HORVS barley, spring (crop), 17.5 g ai/ha, read-out: Visual Growth Reduction (%) 21 Days After Application HORVS): 30 to 44%
- pest or weed control at 35 g/ha (Hordeum vulgare, HORVS barley, spring (crop), 35 g ai/ha, read-out: Visual Growth Reduction (%) 21 Days After Application HORVS): 45 to 59%
- pest or weed control at 70 g/ha (Hordeum vulgare, HORVS barley, spring (crop), 70 g ai/ha, read-out: Visual Growth Reduction (%) 21 Days After Application HORVS): 60 to 74%
- Visual Growth Reduction (%) 21 Days After Application KCHSC (KCHSC kochia (Kochia scoparia), 17.5 g ai/ha): B (85-94)
- Visual Growth Reduction (%) 21 Days After Application KCHSC (KCHSC kochia (Kochia scoparia), 35 g ai/ha): A (95-100)
- Visual Growth Reduction (%) 21 Days After Application KCHSC (KCHSC kochia (Kochia scoparia), 70 g ai/ha): A (95-100)
- GR50 KCHSC (KCHSC kochia (Kochia scoparia), growth reduction of 50%, probit analysis): 2 g ai/ha
- GR80 KCHSC (KCHSC kochia (Kochia scoparia), growth reduction of 80%, probit analysis): 9 g ai/ha
- GR90 KCHSC (KCHSC kochia (Kochia scoparia), growth reduction of 90%, probit analysis): 19 g ai/ha
- Visual Growth Reduction (%) 21 Days After Application LAMPU (LAMPU purple deadnettle (Lamium purpureum), 17.5 g ai/ha): D (60-74)
- Visual Growth Reduction (%) 21 Days After Application LAMPU (LAMPU purple deadnettle (Lamium purpureum), 35 g ai/ha): C (75-84)
- Visual Growth Reduction (%) 21 Days After Application LAMPU (LAMPU purple deadnettle (Lamium purpureum), 70 g ai/ha): B (85-94)
- GR50 LAMPU (LAMPU purple deadnettle (Lamium purpureum), growth reduction of 50%, probit analysis): 2 g ai/ha
- GR80 LAMPU (LAMPU purple deadnettle (Lamium purpureum), growth reduction of 80%, probit analysis): 46 g ai/ha
- GR90 LAMPU (LAMPU purple deadnettle (Lamium purpureum), growth reduction of 90%, probit analysis): >140 g ai/ha
- Visual Growth Reduction (%) 21 Days After Application MATCH (MATCH wild chamomile (Matricaria recutita L.), 17.5 g ai/ha): G (0-29)
- Visual Growth Reduction (%) 21 Days After Application MATCH (MATCH wild chamomile (Matricaria recutita L.), 35 g ai/ha): F (30-44)
- Visual Growth Reduction (%) 21 Days After Application MATCH (MATCH wild chamomile (Matricaria recutita L.), 70 g ai/ha): E (45-59)
- GR50 MATCH (MATCH wild chamomile (Matricaria recutita L.), growth reduction of 50%, probit analysis): 63 g ai/ha
- GR80 MATCH (MATCH wild chamomile (Matricaria recutita L.), growth reduction of 80%, probit analysis): >140 g ai/ha
- GR90 MATCH (MATCH wild chamomile (Matricaria recutita L.), growth reduction of 90%, probit analysis): >140 g ai/ha
- Visual Growth Reduction (%) 21 Days After Application PAPRH (PAPRH common poppy (Papaver rhoeas), 17.5 g ai/ha): F (30-44)
- Visual Growth Reduction (%) 21 Days After Application PAPRH (PAPRH common poppy (Papaver rhoeas), 35 g ai/ha): D (60-74)
- Visual Growth Reduction (%) 21 Days After Application PAPRH (PAPRH common poppy (Papaver rhoeas), 70 g ai/ha): C (75-84)
- GR50 PAPRH (PAPRH common poppy (Papaver rhoeas), growth reduction of 50%, probit analysis): 44 g ai/ha
- GR80 PAPRH (PAPRH common poppy (Papaver rhoeas), growth reduction of 80%, probit analysis): >140 g ai/ha
- GR90 PAPRH (PAPRH common poppy (Papaver rhoeas), growth reduction of 90%, probit analysis): >140 g ai/ha
- Visual Growth Reduction (%) 21 Days After Application SASKR (SASKR Russian thistle (Salsola iberica), 17.5 g ai/ha): B (85-94)
- GR50 SASKR (SASKR Russian thistle (Salsola iberica), growth reduction of 50%, probit analysis): 0.4 g ai/ha
- GR80 SASKR (SASKR Russian thistle (Salsola iberica), growth reduction of 80%, probit analysis): 9 g ai/ha
- GR90 SASKR (SASKR Russian thistle (Salsola iberica), growth reduction of 90%, probit analysis): 42 g ai/ha
- Visual Growth Reduction (%) 21 Days After Application SINAR (SINAR wild mustard (Sinapis arvensis), 17.5 g ai/ha): A (95-100)
- Visual Growth Reduction (%) 21 Days After Application SINAR (SINAR wild mustard (Sinapis arvensis), 35 g ai/ha): A (95-100)
- Visual Growth Reduction (%) 21 Days After Application SINAR (SINAR wild mustard (Sinapis arvensis), 70 g ai/ha): A (95-100)
- GR50 SINAR (SINAR wild mustard (Sinapis arvensis), growth reduction of 50%, probit analysis): 1 g ai/ha
- GR80 SINAR (SINAR wild mustard (Sinapis arvensis), growth reduction of 80%, probit analysis): 3 g ai/ha
- GR90 SINAR (SINAR wild mustard (Sinapis arvensis), growth reduction of 90%, probit analysis): 8 g ai/ha
- GR20 TRZAS (TRZAS wheat, spring (crop), growth reduction of 20%, probit analysis): 20 g ai/ha
- pest or weed control at 17.5 g/ha (Triticum aestivum, TRZAS wheat, spring (crop), 17.5 g ai/ha, read-out: Visual Growth Reduction (%) 21 Days After Application TRZAS): 0 to 29%
- pest or weed control at 35 g/ha (Triticum aestivum, TRZAS wheat, spring (crop), 35 g ai/ha, read-out: Visual Growth Reduction (%) 21 Days After Application TRZAS): 30 to 44%
- pest or weed control at 70 g/ha (Triticum aestivum, TRZAS wheat, spring (crop), 70 g ai/ha, read-out: Visual Growth Reduction (%) 21 Days After Application TRZAS): 45 to 59%
- Visual Growth Reduction (%) 21 Days After Application VERPE (VERPE bird's-eye speedwell (veronica persica), 17.5 g ai/ha): G (0-29)
- Visual Growth Reduction (%) 21 Days After Application VERPE (VERPE bird's-eye speedwell (veronica persica), 35 g ai/ha): D (60-74)
- Visual Growth Reduction (%) 21 Days After Application VERPE (VERPE bird's-eye speedwell (veronica persica), 70 g ai/ha): C (75-84)
- GR50 VERPE (VERPE bird's-eye speedwell (veronica persica), growth reduction of 50%, probit analysis): 33 g ai/ha
- GR80 VERPE (VERPE bird's-eye speedwell (veronica persica), growth reduction of 80%, probit analysis): 77 g ai/ha
- GR90 VERPE (VERPE bird's-eye speedwell (veronica persica), growth reduction of 90%, probit analysis): 119 g ai/ha
- Visual Growth Reduction (%) 21 Days After Application VIOTR (VIOTR wild pansy (Viola tricolor), 17.5 g ai/ha): F (30-44)
- Visual Growth Reduction (%) 21 Days After Application VIOTR (VIOTR wild pansy (Viola tricolor), 35 g ai/ha): F (30-44)
- Visual Growth Reduction (%) 21 Days After Application VIOTR (VIOTR wild pansy (Viola tricolor), 70 g ai/ha): D (60-74)
- GR50 VIOTR (VIOTR wild pansy (Viola tricolor), growth reduction of 50%, probit analysis): 47 g ai/ha
- GR80 VIOTR (VIOTR wild pansy (Viola tricolor), growth reduction of 80%, probit analysis): >140 g ai/ha
- GR90 VIOTR (VIOTR wild pansy (Viola tricolor), growth reduction of 90%, probit analysis): >140 g ai/ha
